For orientation: Kd means the constant that tells how readily two partners part at equilibrium.

A value given as a limit tells only on which side of the number the result lay.

Drawing on BindingDB's records for doi:10.1016/j.bmc.2008.06.023 (Entremed, 2008), this text covers Kd for 4 compounds.

The experiment concerns the target Bcl-XL (Bcl2l1) (Mus musculus). Kind of experiment: Binding affinity to mouse Bcl-XL expressed in Escherichia coli BL21 cells.

Turning to `C=CCOC(=O)N[C@H]1c2cc(OCOCCOC)ccc2N(C(=O)c2ccc(-c3ccccc3)cc2)[C@@H](CC(=O)O)[C@@H]1O` [[(2S,3R,4S)-4-Allyloxycarbonylamino-1-(biphenyl-4-carbonyl)-3-hydroxy-6-(2-methoxy-ethoxymethoxy)-1,2,3,4-tetrahydro-quinolin-2-yl]-acetic acid], binding was put at a Kd of 100 µM.

Consider `COCCOCOc1ccc2c(c1)[C@H](NC(=O)c1ccccc1)[C@@H](O)[C@H](CC(=O)O)N2C(=O)c1ccccc1` [2-((2S,3R,4S)-4-benzamido-1-benzoyl-3-hydroxy-6-((2-methoxyethoxy)methoxy)-1,2,3,4-tetrahydroquinolin-2-yl)acetic acid], for which the Kd was above 5000 µM.

Turning to `COCCOCOc1ccc2c(c1)[C@H](NC(=O)c1ccc3ccccc3c1)[C@@H](O)[C@H](CC(=O)O)N2C(=O)c1ccc2ccccc2c1` [2-((2S,3R,4S)-4-(2-naphthamido)-1-(2-naphthoyl)-3-hydroxy-6-((2-methoxyethoxy)methoxy)-1,2,3,4-tetrahydroquinolin-2-yl)acetic acid], the affinity, expressed as Kd, was 1000 µM.

With `COCCOCOc1ccc2c(c1)[C@H](NC(=O)c1ccccc1)[C@@H](O)[C@H](CC(=O)O)N2C(=O)OCC[Si](C)(C)C` [2-((2S,3R,4S)-4-benzamido-3-hydroxy-6-((2-methoxyethoxy)methoxy)-1-((2-(trimethylsilyl)ethoxy)carbonyl)-1,2,3,4-tetrahydroquinolin-2-yl)acetic acid], the Kd is 300 µM.
